# Target: T1, recombinant human 11 β-HSD1 (Homo sapiens, UniProt P28845)
# T1 construct: made in house; host or cells: E. coli
# Assay: 11 β-HSD1 SPA Assay (Scintillation Proximity Assay)
# Format: biochemical
# Outline: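 E. coli-expressed human enzyme (30-100 nM) with tritiated cortisone 40 nM and NADPH 1 mM in HEPES buffer pH7.4, 2 hours at room temperature. Stopped with protein A SPA beads carrying anti-cortisol antibody and glycyrrhetinic acid; counted after overnight incubation. IC50 from percent inhibition between no-enzyme and no-compound signals.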
# T1 sequence (P28845 whole entry): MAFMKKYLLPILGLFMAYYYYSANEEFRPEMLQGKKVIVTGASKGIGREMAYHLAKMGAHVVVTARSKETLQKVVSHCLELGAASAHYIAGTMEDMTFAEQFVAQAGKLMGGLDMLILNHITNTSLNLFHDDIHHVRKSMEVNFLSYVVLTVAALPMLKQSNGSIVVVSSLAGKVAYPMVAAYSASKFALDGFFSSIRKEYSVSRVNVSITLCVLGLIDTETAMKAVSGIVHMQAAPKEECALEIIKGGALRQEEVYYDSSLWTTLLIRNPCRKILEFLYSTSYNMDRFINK
row,SMILES,IC50
1,"CC(C)(Oc1ccc(Cl)cc1Cl)C(=O)N[C@H]1C[C@H]2CC[C@@H](C1)N2c1ccc(C(=O)Nc2ccon2)cn1 [Example 386, 6-(3-endo-{[2-(2,4-dichlorophenoxy)-2-methylpropanoyl]amino}-8-azabicyclo[3.2.1]oct-8-yl)-N-(isoxazol-3-yl)pyridine-3-carboxamide]",< 200 nM
2,"CC(C)(Oc1ccc(Cl)cc1OCCn1ccnc1)C(=O)N[C@H]1C[C@H]2CC[C@@H](C1)N2c1ccc(C(=O)NCC(F)(F)F)cn1 [Example 387, 6-{3-endo-[(2-{4-chloro-2-[2-(1H-imidazol-1-yl)ethoxy]phenoxy}-2-methylpropanoyl)amino]-8-azabicyclo[3.2.1]oct-8-yl}-N-(2,2,2-trifluoroethyl)pyridine-3-carboxamide]",< 2000 nM
3,"CC(C)(Oc1ccc(Cl)cc1S(N)(=O)=O)C(=O)N[C@H]1C[C@H]2CC[C@@H](C1)N2c1ccc(C(=O)NCC(F)(F)F)cn1 [Example 388, 6-(3-endo-{[2-(4-chloro-2-sulfamoylphenoxy)-2-methylpropanoyl]amino}-8-azabicyclo[3.2.1]oct-8-yl)-N-(2,2,2-trifluoroethyl)pyridine-3-carboxamide]",< 2000 nM
4,"CC(C)(Oc1ccc(Cl)cc1OCCO)C(=O)N[C@H]1C[C@H]2CC[C@@H](C1)N2c1ccc(C(=O)NCC(F)(F)F)cn1 [Example 389, 6-[3-endo-({2-[4-chloro-2-(2-hydroxyethoxy)phenoxy]-2-methylpropanoyl}amino)-8-azabicyclo[3.2.1]oct-8-yl]-N-(2,2,2-trifluoroethyl)pyridine-3-carboxamide]",< 200 nM
5,"CC(C)(Oc1cccc2cc[nH]c12)C(=O)N[C@H]1C[C@H]2CC[C@@H](C1)N2c1ccc(C(=O)NCC(F)(F)F)cn1 [Example 390, 6-(3-endo-{[2-(1H-indol-7-yloxy)-2-methylpropanoyl]amino}-8-azabicyclo[3.2.1]oct-8-yl)-N-(2,2,2-trifluoroethyl)pyridine-3-carboxamide]",< 200 nM
6,"CC(C)(Oc1ccc(C(C)(C)O)cc1Cl)C(=O)N[C@H]1C[C@H]2CC[C@@H](C1)N2c1ccc(C(=O)NCC(F)(F)F)cn1 [Example 391, 6-[3-endo-({2-[2-chloro-4-(2-hydroxypropan-2-yl)phenoxy]-2-methylpropanoyl}amino)-8-azabicyclo[3.2.1]oct-8-yl]-N-(2,2,2-trifluoroethyl)pyridine-3-carboxamide]",< 200 nM
7,"CC(C)(Oc1cc(OCCO)c(Cl)cc1Cl)C(=O)NC1CC2CCC(C1)N2c1ccc(C(=O)NC2CC2(F)F)cn1 (stereo not drawn) [Example 392, 6-[3-endo-({2-[2,4-dichloro-5-(2-hydroxyethoxy)phenoxy]-2-methylpropanoyl}amino)-8-azabicyclo[3.2.1]oct-8-yl]-N-(2,2-difluorocyclopropyl)pyridine-3-carboxamide]",< 200 nM
8,"CC(C)(Oc1ccc(Cl)cc1C(F)F)C(=O)NC1CC2CCC(C1)N2c1ccc(C(=O)NC2CC2(F)F)cn1 (stereo not drawn) [Example 393, 6-[3-endo-({2-[4-chloro-2-(difluoromethyl)phenoxy]-2-methylpropanoyl}amino)-8-azabicyclo[3.2.1]oct-8-yl]-N-(2,2-difluorocyclopropyl)pyridine-3-carboxamide]",< 200 nM
9,"CC(C)(Oc1ccc(Cl)cc1OC(F)(F)F)C(=O)NC1CC2CCC(C1)N2c1ccc(C(=O)NC2CC2(F)F)cn1 (stereo not drawn) [Example 394, 6-[3-endo-({2-[4-chloro-2-(trifluoromethoxy)phenoxy]-2-methylpropanoyl}amino)-8-azabicyclo[3.2.1]oct-8-yl]-N-(2,2-difluorocyclopropyl)pyridine-3-carboxamide]",< 200 nM
10,"CC(C)(CO)NC(=O)c1ccc(N2[C@@H]3CC[C@H]2C[C@@H](NC(=O)C(C)(C)Oc2ccc(Cl)cc2Cl)C3)nc1 [Example 395, 6-(3-endo-{[2-(2,4-dichlorophenoxy)-2-methylpropanoyl]amino}-8-azabicyclo[3.2.1]oct-8-yl)-N-(1-hydroxy-2-methylpropan-2-yl)pyridine-3-carboxamide]",< 200 nM
11,"CC(C)(O)CNC(=O)c1ccc(N2[C@@H]3CC[C@H]2C[C@@H](NC(=O)C(C)(C)Oc2ccc(Cl)cc2Cl)C3)nc1 [Example 396, 6-(3-endo-{[2-(2,4-dichlorophenoxy)-2-methylpropanoyl]amino}-8-azabicyclo[3.2.1]oct-8-yl)-n-(2-hydroxy-2-methylpropyl)pyridine-3-carboxamide]",< 200 nM
12,"C[C@@H](CO)NC(=O)c1ccc(N2C3CCC2CC(NC(=O)C(C)(C)Oc2ccc(Cl)cc2Cl)C3)nc1 (stereo partly drawn) [Example 397, 6-(3-endo-{[2-(2,4-dichlorophenoxy)-2-methylpropanoyl]amino}-8-azabicyclo[3.2.1]oct-8-yl)-N-[(2S)-1-hydroxypropan-2-yl]pyridine-3-carboxamide]",< 200 nM
13,"C[C@H](CO)NC(=O)c1ccc(N2C3CCC2CC(NC(=O)C(C)(C)Oc2ccc(Cl)cc2Cl)C3)nc1 (stereo partly drawn) [Example 398, 6-(3-endo-{[2-(2,4-dichlorophenoxy)-2-methylpropanoyl]amino}-8-azabicyclo[3.2.1]oct-8-yl)-N-[(2R)-1-hydroxypropan-2-yl]pyridine-3-carboxamide]",< 200 nM
14,"CC(C)(Oc1ncc(Cl)cc1Cl)C(=O)NC1CC2CCC(C1)N2c1ccc(C(=O)NC2CC2(F)F)cn1 (stereo not drawn) [Example 399, 6-(3-endo-(2-(3,5-dichloropyridin-2-yloxy)-2-methylpropanamido)-8-azabicyclo[3.2.1]octan-8-yl)-N-(2,2-difluorocyclopropyl) nicotinamide]",< 200 nM
15,"CC(C)NC(=O)c1ccc(N2[C@@H]3CC[C@H]2C[C@@H](NC(=O)C(C)(C)Oc2ncc(Cl)cc2Cl)C3)nc1 [Example 400, 6-(3-endo-(2-(3,5-dichloropyridin-2-yloxy)-2-methylpropanamido)-8-azabicyclo[3.2.1]octan-8-yl)-N-isopropylnicotinamide]",< 200 nM
16,"CC(C)(Oc1ccc(Cl)cc1OC(F)(F)F)C(=O)N[C@H]1C[C@H]2CC[C@@H](C1)N2c1ccc(C(=O)NCC(F)F)cn1 [Example 401, 6-(3-endo-(2-(4-chloro-2-(trifluoromethoxy)phenoxy)-2-methylpropanamido)-8-azabicyclo[3.2.1]octan-8-yl)-N-(2,2-difluoroethyl)nicotinamide]",< 200 nM
17,"CC(C)(Oc1cc(OCCO)c(Cl)cc1Cl)C(=O)N[C@H]1C[C@H]2CC[C@@H](C1)N2c1ccc(C(=O)NCC(F)F)cn1 [Example 402, 6-(3-endo-(2-(2,4-dichloro-5-(2-hydroxyethoxy)phenoxy)-2-methylpropanamido)-8-azabicyclo[3.2.1]octan-8-yl)-N-(2,2-difluoroethyl)nicotinamide]",< 200 nM
18,"CC(C)(Oc1ccc(Cl)cc1C(F)F)C(=O)N[C@H]1C[C@H]2CC[C@@H](C1)N2c1ccc(C(=O)NC2(CO)CC2)cn1 [Example 403, 6-(3-endo-(2-(4-chloro-2-(difluoromethyl)phenoxy)-2-methylpropanamido)-8-azabicyclo[3.2.1]octan-8-yl)-N-(1-(hydroxymethyl)cyclopropyl) nicotinamide]",< 200 nM
19,"CC(C)(Oc1ccc(Cl)cc1C(F)F)C(=O)N[C@H]1C[C@H]2CC[C@@H](C1)N2c1ccc(C(=O)Nc2ccon2)cn1 [Example 404, 6-(3-endo-(2-(4-chloro-2-(difluoromethyl)phenoxy)-2-methylpropanamido)-8-azabicyclo[3.2.1]octan-8-yl)-N-(isoxazol-3-yl)nicotinamide]",< 200 nM
20,"CC(C)(Oc1cc(OCCN2CCCC2)c(Cl)cc1Cl)C(=O)N[C@H]1C[C@H]2CC[C@@H](C1)N2c1ccc(C(=O)NCC(F)(F)F)cn1 [Example 405, 6-(3-endo-(2-(2,4-dichloro-5-(2-(pyrrolidin-1-yl)ethoxy)phenoxy)-2-methylpropanamido)-8-azabicyclo[3.2.1]octan-8-yl)-N-(2,2,2-trifluoroethyl)nicotinamide]",< 200 nM
21,"CN1CCN(CCOc2cc(OC(C)(C)C(=O)N[C@H]3C[C@H]4CC[C@@H](C3)N4c3ccc(C(=O)NCC(F)(F)F)cn3)c(Cl)cc2Cl)CC1 [Example 406, 6-(3-endo-(2-(2,4-dichloro-5-(2-(4-methylpiperazin-1-yl)ethoxy)phenoxy)-2-methylpropanamido)-8-azabicyclo[3.2.1]octan-8-yl)-N-(2,2,2-trifluoroethyl)nicotinamide]",< 200 nM
22,"CC(C)(Oc1cc(OCCN2CCOCC2)c(Cl)cc1Cl)C(=O)N[C@H]1C[C@H]2CC[C@@H](C1)N2c1ccc(C(=O)NCC(F)(F)F)cn1 [Example 407, 6-(3-endo-(2-(2,4-dichloro-5-(2-morpholinoethoxy)phenoxy)-2-methylpropanamido)-8-azabicyclo[3.2.1]octan-8-yl)-N-(2,2,2-trifluoroethyl)nicotinamide]",< 200 nM
23,"CC(C)(Oc1ncc(Cl)cc1Cl)C(=O)N[C@H]1C[C@H]2CC[C@@H](C1)N2c1ccc(C(=O)NCC(F)F)cn1 [Example 408, 6-(3-endo-(2-(3,5-dichloropyridin-2-yloxy)-2-methylpropanamido)-8-azabicyclo[3.2.1]octan-8-yl)-N-(2,2-difluoroethyl)nicotinamide]",< 200 nM
24,"CC(C)(Oc1ncc(Cl)cc1F)C(=O)N[C@H]1C[C@H]2CC[C@@H](C1)N2c1ccc(C(=O)NCC(F)F)cn1 [Example 409, 6-(3-endo-(2-(5-chloro-3-fluoropyridin-2-yloxy)-2-methylpropanamido)-8-azabicyclo[3.2.1]octan-8-yl)-N-(2,2-difluoroethyl)nicotinamide]",< 200 nM
25,"C[C@H](NC(=O)c1ccc(N2C3CCC2CC(NC(=O)C(C)(C)Oc2ccc(Cl)cc2OC(F)(F)F)C3)nc1)C(F)(F)F (stereo partly drawn) [Example 410, 6-(3-endo-(2-(4-chloro-2-(trifluoromethoxy)phenoxy)-2-methylpropanamido)-8-azabicyclo[3.2.1]octan-8-yl)-N-((S)-1,1,1-trifluoropropan-2-yl)nicotinamide]",< 200 nM
26,"C[C@@H](NC(=O)c1ccc(N2C3CCC2CC(NC(=O)C(C)(C)Oc2ccc(Cl)cc2C(F)F)C3)nc1)C(F)(F)F (stereo partly drawn) [Example 411, 6-(3-endo-(2-(4-chloro-2-(difluoromethyl)phenoxy)-2-methylpropanamido)-8-azabicyclo[3.2.1]octan-8-yl)-N-((R)-1,1,1-trifluoropropan-2-yl)nicotinamide]",< 200 nM

# Reference: US8163771B2, “11 β-HSD1 modulators” (Exelixis, Inc., priority 2008, dated 2012)
